# Experimental data taken from publication PMC6346587, “Glucose 6-phosphate dehydrogenase 6-phosphogluconolactonase: characterization of the Plasmodium vivax enzyme and inhibitor studies” (Malaria Journal, 2019).
# Biological target: T1, PfGluPho (Plasmodium falciparum, UniProt Q8IKU0)
# T1 construct: made in house
# T1 sequence (Q8IKU0 1-910): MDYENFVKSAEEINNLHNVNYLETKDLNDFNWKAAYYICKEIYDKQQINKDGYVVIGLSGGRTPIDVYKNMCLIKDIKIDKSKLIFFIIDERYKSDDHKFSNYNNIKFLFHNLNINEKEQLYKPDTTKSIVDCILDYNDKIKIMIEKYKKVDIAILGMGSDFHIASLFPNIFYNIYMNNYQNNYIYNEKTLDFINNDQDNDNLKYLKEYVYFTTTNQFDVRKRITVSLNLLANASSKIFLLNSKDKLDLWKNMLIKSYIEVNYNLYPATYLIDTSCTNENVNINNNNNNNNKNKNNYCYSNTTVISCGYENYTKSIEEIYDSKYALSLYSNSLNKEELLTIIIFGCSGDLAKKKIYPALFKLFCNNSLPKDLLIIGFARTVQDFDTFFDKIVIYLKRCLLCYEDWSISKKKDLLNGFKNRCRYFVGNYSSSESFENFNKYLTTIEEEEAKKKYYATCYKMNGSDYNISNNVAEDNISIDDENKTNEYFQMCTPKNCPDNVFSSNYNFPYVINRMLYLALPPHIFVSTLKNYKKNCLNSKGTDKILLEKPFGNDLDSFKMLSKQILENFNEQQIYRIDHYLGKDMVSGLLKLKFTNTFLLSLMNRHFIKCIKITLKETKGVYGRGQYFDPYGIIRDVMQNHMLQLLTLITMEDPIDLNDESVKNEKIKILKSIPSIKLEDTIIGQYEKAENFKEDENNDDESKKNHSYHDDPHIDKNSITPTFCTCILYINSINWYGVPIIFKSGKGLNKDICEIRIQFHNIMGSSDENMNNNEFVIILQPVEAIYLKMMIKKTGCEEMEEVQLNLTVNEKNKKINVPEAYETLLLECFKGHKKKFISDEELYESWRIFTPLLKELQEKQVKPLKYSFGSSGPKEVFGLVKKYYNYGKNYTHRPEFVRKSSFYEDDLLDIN
# Assay: PfGluPho G6PD activity inhibition assay
# Format: biochemical
# Method: To identify potential inhibitors of PvG6PD, compounds with already known effects on PfGluPho (ellagic acid and derivatives, ML304) were tested. Additionally, several compound libraries of the Helmholtz Center for Infection Research, Brunswick, were screened against PfGluPho using the high-throughput-compatible assay systems described in Preuss et al.. […] Based on structure-activity relationship studies, a set of new potential G6PD inhibitors (Fig. 8) was then synthesized and assessed. First, the IC50 values of the compounds were determined, followed by mechanistic characterization of the mode of action. To test for selectivity of the compounds, the IC50 values of the compounds on PvG6PD, PfGluPho, and hG6PD were determined in parallel.
# All measurements were performed in 96-well plates, half area (Greiner Bio-One, Frickenhausen, Germany) using a Tecan Infinite M200 plate reader (Maennedorf, Switzerland). The compounds were dissolved in 100% DMSO and afterwards diluted in assay buffer to the required concentrations. Different compound concentrations were added to a mixture of enzyme and NADP^+ in assay buffer. Concentrations of substrates differed depending on the enzyme; an overview is given in the Additional file 4. The reaction was started by adding G6P, and the increase of NADPH was monitored by measuring the absorbance at 340 nm. To increase the sensitivity of the assay, some measurements were reproduced, detecting the fluorescence of NADPH at ex340/em460. […] A negative control containing no compound was defined as 0% inhibition; a positive control lacking the substrate G6P was defined as 100% inhibition. For evaluations using GraphPad Prism and Microsoft Excel, only a linear increase in absorbance/fluorescence was considered. For the mechanistic characterization of the compounds, either NADP^+ or G6P were titrated at different compound concentrations around the IC50, while keeping the second substrate in saturation. The initial slope was plotted as Michaelis–Menten curves and Lineweaver–Burk plots using GraphPad Prism; KM values and Vmax were calculated with GraphPad Prism software.
smiles,measurement,setting,value
CCN1CCC[C@@H]1CNC(=O)c1ccc2c(c1)NC(=O)c1cccc(C)c1S2 [ML304],Type of inhibition of PfGluPho towards G6P,G6P titrated,competes with G6P
same,Type of inhibition of PfGluPho towards NADP+,NADP+ titrated,non-competitive inhibitor
same,Ki,"competes with G6P, read-out: Ki on PfGluPho towards G6P",230 ± 160 nM
